Earlier results on 1 molecule are cited in patent US6706282B1, “Controlled delivery of phenoxyethyl-substituted 1,2,4-triazolones” (priority 1998, dated 2004).

SMILES strings stand for the structures. Structures can show the parent of a compound that is named as a salt.

Take `CCc1nn(CCCN2CCN(c3cccc(Cl)c3)CC2)c(=O)n1CCOc1ccccc1` [nefazodone hydrochloride, 2-[3-[4-(3-chlorophenyl)-piperazinyl]propyl]-5-ethyl-4-(2-phenoxyethyl)-2H-1,2,4-triazol-3(4H)-one hydrochloride]: under “conventional immediate release formulations”, the “time of peak plasma concentrations after dosing” value is listed as “about one”. Moreover, under “in vivo”, the half-life was 2 to 4 h.

By half-life is commonly meant the time needed for the level to fall by half in the phase considered.
